# Read-outs that look alike come from different tables or passages of the source.
# How the values were obtained:
# [1] = tested on: 7 CNS metastasis cell lines (MOLT-4-luc, Nalm-6-luc, NCI-H460-luc, ACHN-luc2, PC-9-luc, H1975-luc, KM12-luc); assay: Anti-proliferation assay, 7 CNS metastasis cell lines taken together; type: cell-based
# Procedure: (§1) The anti-proliferation effect of 2 compounds (the compound of formula (I) and temozolomide) in 7 CNS metastasis cell lines (MOLT-4-luc, Nalm-6-luc, NCI-H460-luc, ACHN-luc2, PC-9-luc, H1975-luc, and KM12-luc) was evaluated.
# The plating of cells and compound treatments are shown below in the plate map (Table 12). One plate was needed for the test of 2 compounds (the compound of formula (I) and temozolomide) in one cell line. The compound of formula (I) was tested from 10 μM, 3-fold serial dilution. Temozolomide was tested from 100 μM, 3-fold serial dilution. […]
# The procedures were performed according to the Promega CellTiter-Glo Luminescent Cell Viability Assay Kit manual (Promega-G7573). • The CellTiter-Glo buffer was thawed and equilibrated to room temperature prior to use. • CellTiter-Glo Substrate was equilibrated to room temperature prior to use. • The entire liquid volume of CellTiter-Glo Buffer was transferred into the amber bottle containing CellTiter-Glo Substrate to reconstitute the lyophilized enzyme/substrate mixture. […] Plates were covered with aluminum foil to protect from light. • The contents were mixed for 2 minutes on an orbital shaker to induce cell lysis. • The plate was incubated at room temperature for 20 minutes to stabilize luminescent signal. • Record luminescence on the 2104 EnVision plate reader. […]
# [2] = tested on: Nalm-6-luc; assay: CellTiter-Glo anti-proliferation assay, Nalm-6-luc; type: cell-based
# Procedure: as §1
# The plating of cells and compound treatments are shown below in the plate map (Table 12). One plate was needed for the test of 2 compounds (the compound of formula (I) and temozolomide) in one cell line. The compound of formula (I) was tested from 10 μM, 3-fold serial dilution. Temozolomide was tested from 100 μM, 3-fold serial dilution.
# All the cell lines were maintained in culture conditions at 37° C. in an atmosphere with 5% CO2 in air. The tumor cells were routinely subcultured. The cells growing in an exponential growth phase were harvested and counted for plating.
# Cells were counted by haemocytometer with Trypan blue staining. Next, 135 μL of cell suspension were plated into the assay plates according to the plate map and 135 μL of assay medium into the blank wells. The plates were incubated at 37° C., 5% CO2, 95% air and 100% relative humidity overnight.
# (§2) 4.4.4 Compound Plate (10×) Preparation and Compound Treatment • 10× concentrate compound plate preparation: Add 198 μL of assay medium into each well of the V-bottom plate; then transfer 2 μL of the stock compound solution of each concentration from the stock plate. Add 2 μL of DMSO into the Blank and Control wells. Pipette up and down to mix well. This V-plate is designated as the 10× concentrate compound plate. • For day 0 plate, add 15 μL of the DMSO-medium into the Control wells. The final DMSO concentration was 0.1%. Then directly proceed to cell viability assay. • For assay plate, add 15 μL of the compound-medium of each well from the 10× concentrate compound plate into the cells in 96-well assay plate according to the plate map. Add 15 μL of the DMSO-medium into the Blank and Control wells. The final DMSO concentration was 0.1%. • Return the assay plate into incubator and incubate for 6 days.
# The procedures were performed according to the Promega CellTiter-Glo Luminescent Cell Viability Assay Kit manual (Promega-G7573). • The CellTiter-Glo buffer was thawed and equilibrated to room temperature prior to use. • CellTiter-Glo Substrate was equilibrated to room temperature prior to use. • The entire liquid volume of CellTiter-Glo Buffer was transferred into the amber bottle containing CellTiter-Glo Substrate to reconstitute the lyophilized enzyme/substrate mixture. This forms the CellTiter-Glo Reagent. • The contents were mixed by gently vortexing to obtain a homogeneous solution. • The plate was equilibrated and its contents to room temperature for approximately 30 minutes. 75 μL (equal to the half volume of culture medium present in each well) CellTiter-Glo • Reagent was added in each well. Plates were covered with aluminum foil to protect from light. • The contents were mixed for 2 minutes on an orbital shaker to induce cell lysis. • The plate was incubated at room temperature for 20 minutes to stabilize luminescent signal. • Record luminescence on the 2104 EnVision plate reader.
# (§3) Inhibition rate (IR) of the tested compounds was determined by the following formula: IR (%)=(1−(RLU compound−RLU day0)/(RLU control−RLU day0))*100%. The inhibitions of different dose of compound were calculated in Excel file, and then were used to plot inhibition curves and evaluate related parameters, such as Min (%), Max (%) and GI50. The data were interpreted by GraphPad Prism.
# [3] = tested on: MCF-7 tumors; type: in vivo; conditions: for T/C / TGI / Tumor Size: PG-D49
# Procedure: The in vivo anti-tumor efficacy of the compound of formula (I) either alone or in combination with fulvestrant on MCF-7 breast tumor model on female Balb/c nude mice was evaluated. The protocol was he same as described in Example 1 with the exception that the dosing schedule of fulvestrant was modified.
# [4] = tested on: SK-MEL-28; assay: Cell viability assay, melanoma cell line SK-MEL-28; type: cell-based
# Procedure: as §2
# (§4) The procedures were performed according to the Promega CellTiter-Glo Luminescent Cell Viability Assay Kit manual (Promega-G7573). • The CellTiter-Glo buffer was thawed and equilibrated to room temperature prior to use. • CellTiter-Glo Substrate was equilibrated to room temperature prior to use. • The entire liquid volume of CellTiter-Glo Buffer was transferred into the amber bottle containing CellTiter-Glo Substrate to reconstitute the lyophilized enzyme/substrate mixture. […] Plates were covered with aluminum foil to protect from light. • The contents were mixed for 2 minutes on an orbital shaker to induce cell lysis. • The plate was incubated at room temperature for 20 minutes to stabilize luminescent signal. • Record luminescence on the 2104 EnVision plate reader.
# as §3, with “The data were interpreted by GraphPad Prism.” left out
# [5] = tested on: SK-MEL-5; assay: Cell viability assay, melanoma cell line SK-MEL-5; type: cell-based
# Procedure: as §2, §4
# as §3, with “The data were interpreted by GraphPad Prism.” left out
# [6] = inhibition rate, 6 days, Compound (I) from 10 μM, temozolomide from 100 μM, 3-fold, 9 points
structure (smiles),measurement,setting,value
"CC(C)N1CCOc2c(F)cc(-c3nc(Nc4ccc(C5CCN(C)CC5)cn4)ncc3F)cc21 [Compound (I), 5-fluoro-4-(8-fluoro-4-isopropyl-3,4-dihydro-2H-benzo[b][1,4]oxazin-6-yl)-N-(5-(1-methylpiperidin-4-yl)pyridin-2-yl)pyrimidin-2-amine]",Inhibitory effect in cell viability assay,[1]; current testing concentrations,significant inhibitory effect
same,GI50,"[1]; read-out: Absolute GI50 values, range over 7 cell lines",47 to 2790 nM
same,GI50,"[2]; 144 h, 6 days incubation, read-out: Absolute GI50",154 nM
same,Max (%),[2]; [6],105.6%
same,Min (%),[2]; [6],−20.8%
same,T/C,[3]; 10 mg/kg PO QD,51.74%
same,TGI,[3]; 10 mg/kg PO QD,55.83%
same,Tumor Size,[3]; 10 mg/kg PO QD,611 mm^3
same,T/C,[3]; 30 mg/kg PO QD,14.39%
same,TGI,[3]; 30 mg/kg PO QD,99.02%
same,Tumor Size,[3]; 30 mg/kg PO QD,170 mm^3
same,Toxicity (body weight changes),"[3]; MCF-7 tumor-bearing mice, 50 days",did not display toxicity
same,GI50,"[4]; Homo sapiens, SK-MEL-28, read-out: Absolute GI50",152 nM
same,Max (%),[4]; inhibition rate,106.21%
same,Min (%),[4]; inhibition rate,1.70%
same,GI50,"[5]; Homo sapiens, SK-MEL-5, read-out: Absolute GI50",1240 nM
same,Max (%),[5]; inhibition rate,116.12%
same,Min (%),[5]; inhibition rate,−2.91%

# — patent US20230000876A1, “TREATING CANCERS WITH A CYCLIN-DEPENDENT KINASE INHIBITOR” (Nuvation Bio Inc., priority 2021, published 2023)
